Source: patent publication US4863949A, “Aminopropanol derivatives, processes for the preparation thereof, the use thereof and pharmaceutical compositions containing them” (Boehringer Mannheim GmbH, priority 1985, dated 1989)
Counter-ions that a name gives are not always drawn.

System: livers
Assay: denitration rate in perfused rat livers relative to isosorbide-5-mononitrate (nitrate-like action)
Set-up: species or system rats
Conditions: rat livers perfused 4 min, equimolar 5×10^-5 M/l; freed NO2 in perfusate; high = fast denitration

O=C(CCCO[N+](=O)[O-])NCCNCC(O)COc1cccc2[nH]ccc12 (stereo not shown) [2 (11.), 1-indol-4-yloxy)-3-[2-(4-nitroxybutanoylamino)-ethylamino]-propan-2-ol hemifumarate]
Vrel (denitration rate in relation to isosorbide-5-mononitrate): 0,95

Cn1cnc2cccc(OCC(O)CNC(C)(C)CNC(=O)O[C@H]3CO[C@H]4[C@@H]3OC[C@H]4O[N+](=O)[O-])c21 (stereo partly shown) [Example 11, 3-[1,1-Dimethyl-2-[(5-O-nitroisosorbid-2-yloxy)-carbonylamino]-ethylamino]-1-(3-methylbenzimidazol-4-yloxy)-propan-2-ol fumarate]
Vrel (denitration rate in relation to isosorbide-5-mononitrate): 1,23

CC(CCC(=O)NCCNCC(O)COc1cccc2c1CC(=O)N2)O[N+](=O)[O-] (stereo not shown) [2 (29.), 3-[2-(4-nitroxypentanoylamino)-ethylamino]-1-(2-oxoindolin-4-yloxy)-propan-2-ol cyclamate]
Vrel (denitration rate in relation to isosorbide-5-mononitrate): 0,86

O=C(CCCO[N+](=O)[O-])NCCNCC(O)COc1cccc2c1CC(=O)N2.O=C(O)/C=C/C(=O)O (stereo not shown) [2 (17.), 3-[2-(4-nitroxybutanoylamino)-ethylamino]-1-(2-oxoindolin-4-yloxy)-propan-2-ol fumarate]
Vrel (denitration rate in relation to isosorbide-5-mononitrate): 0,75

O=[N+]([O-])O[C@@H]1CO[C@H]2[C@@H]1OC[C@@H]2O [Isosorbide-5-mononitrate, isosorbide-5-mononitrate, reference compound]
Vrel (denitration rate in relation to isosorbide-5-mononitrate): 0,86

O=C(CCCCO[N+](=O)[O-])NCCNCC(O)COc1cccc2c1CC(=O)N2 (stereo not shown) [2 (31.), 3-[2-(5-nitroxypentanoylamino)-ethylamino]-1-(2-oxoindolin-4-yloxy)-propan-2-ol hemifumarate]
Vrel (denitration rate in relation to isosorbide-5-mononitrate): 0,66

CC(C)(CNC(=O)CCCO[N+](=O)[O-])NCC(O)COc1ccccc1C#N.O=C(O)/C=C/C(=O)O (stereo not shown) [2 (48.), 1-(2-cyanophenoxy)-3-[1,1-dimethyl-2-(4-nitroxybutanoylamino)-ethylamino]-propan-2-ol fumarate]
Vrel (denitration rate in relation to isosorbide-5-mononitrate): 0,94

CC(=O)Oc1c(C)cc(OCC(O)CNC(C)(C)CNC(=O)CCCO[N+](=O)[O-])c(C)c1C.O=C(O)/C=C/C(=O)O (stereo not shown) [8 (15.), 3-[1,1-dimethyl-2-(4-nitroxybutanoylamino)-ethylamino]-1-(4-methylcarbonyloxy-2,3,5-trimethylphenoxy)-propan-2-ol fumarate]
Vrel (denitration rate in relation to isosorbide-5-mononitrate): 1,19

C=CCc1ccccc1OCC(O)CNC(C)(C)CNC(=O)CCCO[N+](=O)[O-] (stereo not shown) [2 (72.), 1-(2-allylphenoxy)-3-[1,1-dimethyl-2-(4-nitroxybutanoylamino)-ethylamino]-propan-2-ol cyclamate]
Vrel (denitration rate in relation to isosorbide-5-mononitrate): 0,54

Cc1ccc(Cl)c(OCC(O)CNC(C)(C)CNC(=O)CCCO[N+](=O)[O-])c1 (stereo not shown) [2 (46.), 1-(2-chloro-5-methylphenoxy)-3-[1,1-dimethyl-2-(4-nitroxybutanoylamino)-ethylamino]-propan-2-ol cyclamate]
Vrel (denitration rate in relation to isosorbide-5-mononitrate): 0,97
